{"source": "paper PMC11602703", "about": "(Frontiers in Pharmacology, 2024)", "key": {"A2780 cells [1]": {"test_system": "A2780 cells", "test": "Cell cycle analysis by flow cytometry (PI), A2780", "assay_type": "cell-based, human", "settings": "72 hr, Supplementary Figure S1", "method": "(§1) A slight opalescence indicates optimal mixing of the components. […] All experiments were conducted in duplicate. […] Quantitative measurements of the cell cycle phase distribution were performed by flow cytometry. Cells were then suspended in 0.5 mL of hypotonic fluorochrome solution (50 μg/mL PI, 0.1% sodium citrate, 0.1% Triton X-100). […] The percentages of nuclei in the different phases of the cell cycle (G0/G1, S and G2/M) were calculated using a DNA cell cycle analysis software (Cell-Fit, Becton Dickinson). A minimum of 10^4 cells was analyzed for each sample."}, "HCT116 cells [2]": {"test_system": "HCT116 cells", "test": "Cell cycle analysis by flow cytometry (PI), HCT116", "assay_type": "cell-based, human", "settings": "for sub-G0/G1, HCT116 cells, plus SAINT-Protein: 72 h, transfected with SAINT-Protein; for % of cells G0/G1, HCT116 cells / % of cells G2/M, HCT116 cells / % of cells S, HCT116 cells / % of cells sub G0/G1, HCT116 cells: 72 hr, E7 […], 5FU 5µM, with or without SAINT-Protein", "method": "as §1"}, "[3]": {"test_system": "ovarian and colorectal cancer cell lines (A2780, A2780/CP, IGROV-1, HT29, HCT116)", "test": "Cell growth, crystal violet assay, statements over several cancer cell lines", "assay_type": "cell-based, human", "settings": "for IC50: Homo sapiens"}, "recombinant hTS": {"biological_target": "T1, recombinant hTS (Homo sapiens, UniProt P04818)", "T1 construct": "made in house; host or cells: E. coli BL21 (DE3), pQE80L plasmid", "T1 sequence (P04818 whole entry)": "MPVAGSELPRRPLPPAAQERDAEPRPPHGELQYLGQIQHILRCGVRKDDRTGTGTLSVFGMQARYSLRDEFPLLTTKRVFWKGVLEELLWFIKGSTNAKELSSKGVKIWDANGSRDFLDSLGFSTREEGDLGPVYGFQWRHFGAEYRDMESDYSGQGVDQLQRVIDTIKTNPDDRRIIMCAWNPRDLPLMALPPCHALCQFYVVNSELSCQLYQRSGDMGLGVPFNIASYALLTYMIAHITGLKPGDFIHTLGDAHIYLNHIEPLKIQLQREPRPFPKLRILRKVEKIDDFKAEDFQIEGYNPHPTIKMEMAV", "test": "hTS enzyme inhibition, spectrophotometric assay at 340 nm", "assay_type": "biochemical", "settings": "for IC50: IC50 Recombinant hTS, 100 nM hTS, 50 µM mTHF, 110 µM dUMP, 60 min incubation at 37°C, standard error ±20%; for Ki: Ki (text of b40)"}, "HCT116 cells [4]": {"test_system": "HCT116 cells", "test": "Cell growth, crystal violet assay, HCT116", "assay_type": "cell-based", "settings": "Homo sapiens, HCT-116, 72 h, read-out: Cellular IC50 values HCT116"}, "HT29 cells": {"test_system": "HT29 cells", "test": "Cell growth, crystal violet assay, HT29", "assay_type": "cell-based, human", "settings": "for effect of SAINT-Protein transfection on cell survival, HT29: 72 h, Figure 5C"}, "IGROV-1 cells": {"test_system": "IGROV-1 cells", "test": "cells", "assay_type": "cell-based", "settings": "Homo sapiens, IGROV-1, 72 h, read-out: Cellular IC50 values IGROV-1, 72 h-treatment, compound alone"}, "A2780/CP cells": {"test_system": "A2780/CP cells", "test": "Cell growth, crystal violet assay, A2780/CP", "assay_type": "cell-based, human"}, "human pancreatic cancer": {"test_system": "human pancreatic cancer", "settings": "compared with 5-FU; ref Costantino et al., 2022; cited from earlier work"}, "A2780 cells [5]": {"test_system": "A2780 cells", "test": "Cell growth, crystal violet assay, A2780", "settings": "for IC50: Homo sapiens, A2780, 72 h"}, "[6]": {"test_system": "ABC transporters (P-glycoprotein, P-gp) and BCRP", "settings": "in vitro; ref Vaidyanathan et al., 2016; cited from earlier work"}, "P-gp": {"test_system": "P-gp", "settings": "co-treatment with vincristine; ref Robey et al., 2004; Shafran et al., 2005; cited from earlier work"}, "[7]": {"settings": "read-out: cancer cell growth inhibition potency (range over cell lines)"}}, "note": "Where “and” joins values, the source holds several entries; their conditions need not be identical. Equal values may be shown once. Entries after “also recorded” stand apart in the source; their conditions may differ. Read-outs that look alike come from different tables or passages of the source."}
{"compound": "O=c1[nH]cc(F)c(=O)[nH]1", "note": "[Compound 5-FU, 5-fluorouracil, reference compound]", "values": [{"measurement": "effect of SAINT-Protein transfection on sub-G0/G1 phase, A2780 cells", "setting": "A2780 cells [1]", "value": "did not benefit from SAINT-Protein transfection"}, {"measurement": "sub-G0/G1, HCT116 cells, plus SAINT-Protein", "setting": "HCT116 cells [2]", "value": "about 40%"}, {"measurement": "% of cells G0/G1, HCT116 cells", "setting": "HCT116 cells [2]", "value": 54.45, "unit": "%"}, {"measurement": "% of cells G2/M, HCT116 cells", "setting": "HCT116 cells [2]", "value": 14.75, "unit": "%"}, {"measurement": "% of cells S, HCT116 cells", "setting": "HCT116 cells [2]", "value": 12.55, "unit": "%"}, {"measurement": "% of cells sub G0/G1, HCT116 cells", "setting": "HCT116 cells [2]", "value": 15.1, "unit": "%"}]}
{"compound": "O=C(CSc1ccc([N+](=O)[O-])cc1)Nc1ccc(C(=O)O)cc1", "note": "[Compound E1]", "values": [{"measurement": "cellular activity at 100 µM", "setting": "[3]; 100 µM, five cancer cell lines of Table 1", "value": "no observed cellular activity"}, {"measurement": "IC50", "setting": "[3]; read-out: IC50 with SAINT-Protein, OC cell lines", "value": "20 to 40", "unit": "µM"}, {"measurement": "effect of SAINT-Protein transfection on cytotoxic activity, tested cell lines", "setting": "[3]; with SAINT-Protein versus compound alone", "value": "benefits considerably; also recorded: showed cytotoxic activity when associated with the SAINT-Protein"}, {"measurement": "IC50", "setting": "recombinant hTS", "value": "8 µM and 8.2 µM"}, {"measurement": "IC50", "setting": "HCT116 cells [4]", "value": "> 100", "unit": "µM"}, {"measurement": "IC50", "setting": "HT29 cells; Homo sapiens, HT-29, 72 h, read-out: Cellular IC50 values HT29", "value": "> 100", "unit": "µM"}]}
{"compound": "NC(=O)c1ccc(NC(=O)C(Sc2ccc([N+](=O)[O-])cc2)c2ccccc2)cc1", "note": "(stereo not shown) [Compound E5, 2-Phenyl-2-(4-nitrophenylthio)-N-(4-carboxamidophenyl)acetamide]", "values": [{"measurement": "interaction with elacridar (synergism quotient analysis)", "setting": "[3]; 200 nM elacridar 2 h pre-treatment, 72 h, A2780, IGROV-1, HT29", "value": "synergized by elacridar in all cell lines tested"}, {"measurement": "effect of SAINT-Protein transfection on cell killing, A2780 and A2780/CP", "setting": "[3]; A2780 and A2780/CP, 72 h, Figure 5A, B", "value": "not significantly enhanced"}, {"measurement": "IC50", "setting": "[3]; [7]", "value": "25 to 70", "unit": "µM"}, {"measurement": "Ki", "setting": "recombinant hTS", "value": 40, "unit": "µM"}, {"measurement": "IC50", "setting": "IGROV-1 cells", "value": "69.9 ± 8", "unit": "µM"}, {"measurement": "effect of SAINT-Protein transfection on cell survival, HT29", "setting": "HT29 cells", "value": "no significant effect"}]}
{"compound": "CS(=O)(=O)c1ccc2nc(NC(=O)C(Sc3ccc([N+](=O)[O-])cc3)c3ccccc3)sc2c1", "note": "(stereo not shown) [Compound E7, phenyl-2-(4-nitrophenylthio)-N-(6-methanesulfonylbenzothiazol-2-yl)acetamide]", "values": [{"measurement": "IC50", "setting": "A2780/CP cells; Homo sapiens, A2780C/P, 72 h, read-out: IC50 A2780/CP cells, without SAINT-Protein (Figure 4A)", "value": "15.3 ± 5", "unit": "µM"}, {"measurement": "SQ with SAINT-Protein, A2780/CP cells, 5 μM", "setting": "A2780/CP cells; compound 5 μM + SAINT-Protein", "value": "1.54±0.45"}, {"measurement": "SQ with SAINT-Protein, A2780/CP cells, 12 μM", "setting": "A2780/CP cells; compound 12 μM + SAINT-Protein", "value": "1.34±0.1"}, {"measurement": "SQ with SAINT-Protein, A2780/CP cells, 25 μM", "setting": "A2780/CP cells; compound 25 μM + SAINT-Protein", "value": "1.15±0.03"}, {"measurement": "effect of SAINT-Protein transfection on sub-G0/G1 phase, A2780 cells", "setting": "A2780 cells [1]", "value": "significantly increased the percentage of cells in the sub-G0/G1 phase"}, {"measurement": "IC50", "setting": "[3]; [7]", "value": "10 to 37", "unit": "µM"}, {"measurement": "anticancer profile in mouse model", "setting": "human pancreatic cancer", "value": "superior to that of 5-FU"}, {"measurement": "Ki", "setting": "recombinant hTS", "value": 7, "unit": "µM"}, {"measurement": "IC50", "setting": "A2780 cells [5]; read-out: IC50 A2780 cells, with SAINT-Protein (Figure 4A)", "value": 5.6, "unit": "µM"}, {"measurement": "IC50", "setting": "A2780 cells [5]; read-out: IC50 A2780 cells, without SAINT-Protein (Figure 4A)", "value": 10.9, "unit": "µM"}, {"measurement": "SQ with SAINT-Protein, A2780 cells, 5 μM", "setting": "A2780 cells [5]; compound 5 μM + SAINT-Protein", "value": "1.10±0.05"}, {"measurement": "SQ with SAINT-Protein, A2780 cells, 12 μM", "setting": "A2780 cells [5]; compound 12 μM + SAINT-Protein", "value": "1.07±0.01"}, {"measurement": "SQ with SAINT-Protein, A2780 cells, 25 μM", "setting": "A2780 cells [5]; compound 25 μM + SAINT-Protein", "value": "0.90±0.1"}, {"measurement": "sub-G0/G1, HCT116 cells, plus SAINT-Protein", "setting": "HCT116 cells [2]", "value": "~60", "unit": "%"}, {"measurement": "% of cells G0/G1, HCT116 cells", "setting": "HCT116 cells [2]", "value": 58.15, "unit": "%"}, {"measurement": "% of cells G2/M, HCT116 cells", "setting": "HCT116 cells [2]", "value": 11.67, "unit": "%"}, {"measurement": "% of cells S, HCT116 cells", "setting": "HCT116 cells [2]", "value": 10.65, "unit": "%"}, {"measurement": "% of cells sub G0/G1, HCT116 cells", "setting": "HCT116 cells [2]", "value": 17.53, "unit": "%"}, {"measurement": "effect of SAINT-Protein transfection on cell survival, HT29", "setting": "HT29 cells", "value": "more favoured by the presence of SAINT-Protein"}]}
{"compound": "COc1cc2c(cc1OC)CN(CCc1ccc(NC(=O)c3cccc4c(=O)c5cccc(OC)c5[nH]c34)cc1)CC2", "note": "[Elacridar, N-[4-[2-(6,7-dimethoxy-3,4-dihydro-1H-isoquinolin-2-yl)ethyl]phenyl]-5-methoxy-9-oxo-10H-acridine-4-carbox amide]", "values": [{"measurement": "concentration reversing multidrug resistance", "setting": "[6]", "value": "20 to 100", "unit": "nM"}]}
{"compound": "O=c1[nH]c(=O)n([C@H]2C[C@H](O)[C@@H](COP(=O)(O)O)O2)cc1F", "note": "[FdUMP, 5-fluorodeoxyuridine-5′-monophosphate, reference compound]", "values": [{"measurement": "IC50", "setting": "recombinant hTS", "value": 0.8, "unit": "µM"}]}
{"compound": "COc1cc2c(cc1OC)CN(CCc1ccc(NC(=O)c3cc(OC)c(OC)cc3NC(=O)c3cnc4ccccc4c3)cc1)CC2", "note": "[Tariquidar, 3-Quinolinecarboxamide, N-[2-[[[4-[2-(3,4-dihydro-6,7-dimethoxy-2(1H)-isoquinolinyl)ethyl]phenyl]amino]carbonyl]-4,5-dimethoxyphenyl]-]", "values": [{"measurement": "concentration giving complete reversal of resistance", "setting": "P-gp", "value": "25 to 80", "unit": "nM"}]}
